Test results as given in ChEMBL document CHEMBL4699456 (Bioorg Med Chem Lett, 2020).

Experiments:
Format in all cases: ADME, organism-based
[1] = Oral bioavailability in BALB/c mouse at 10 mg/kg; conditions: in vivo
[2] = AUC in BALB/c mouse at 10 mg/kg, po; parameters: dose 10 mg/kg; conditions: in vivo
[3] = Volume of distribution at steady state in BALB/c mouse at 2 mg/kg, iv; conditions: in vivo, read-out: Vdss
[4] = Cmax in BALB/c mouse at 10 mg/kg, po; parameters: route oral, dose 10 mg/kg; conditions: in vivo

| bioavailability [1] | AUC [2] | Vd [3] | Cmax [4] | Structure (SMILES) |
| --- | --- | --- | --- | --- |
| 56% | 11.3 µM·h | 1.3 L/kg | 2.1 µM | O=C(O)[C@H]1CC[C@H](C(=O)N2CC[C@](c3ccc(C(OCc4c(F)cccc4F)(C(F)(F)F)C(F)(F)F)cc3)(S(=O)(=O)c3ccc(F)cc3)C2)CC1 |
| 101% | 36.8 µM·h | 1.7 L/kg | 4.9 µM | O=C(O)[C@H]1CC[C@H](C(=O)N2CC[C@](c3ccc(C(OCC4CCCCC4)(C(F)(F)F)C(F)(F)F)cc3)(S(=O)(=O)c3ccc(F)cc3)C2)CC1 |
